ChEMBL document CHEMBL1125004, “Chemistry and pharmacology of the non-benzodiazepine anxiolytic enciprazine and related compounds” (1990)
Activity calls are given as the source filed them. The calls are words filed in the database; no cut-off is given here.

What was measured:
Mus musculus [1] = assay: Antiaggressive anxiolytic activity in the electroshock-induced fighting test in mice (po); Range (9.6-16.7); format: functional
Mus musculus [2] = assay: Antiaggressive anxiolytic activity in the electroshock-induced fighting test in mice (po); Range (14.7-24.8); format: functional
Mus musculus [3] = assay: Antiaggressive anxiolytic activity in the electroshock-induced fighting test in mice (po); Range (9.7-19.3); format: functional
Mus musculus [4] = organism: Mus musculus; assay: Effect on alcohol induced sleep was determined in ethanol potentiation test; Range; format: functional
Mus musculus [5] = organism: Mus musculus; assay: Effect on hexobarbital induced sleep was determined in hexobarbital potentiation test; Range; format: functional
Mus musculus [6] = assay: Antiaggressive anxiolytic activity in the electroshock-induced fighting test in mice (po); Range (10.32-18.72); format: functional
Mus musculus [7] = organism: Mus musculus; assay: Ataxic activity in mice by rotarod test; Range (64.3-92.1); format: functional
[8] = Ratio of ED50 (ethanol) to that of ED50 (fighting); format: functional
[9] = Ratio of ED50 (hexobarbital) to that of ED50 (fighting); format: functional
[10] = Ratio of ED50 (rotarod) to that of ED50 (fighting); format: functional
Rattus norvegicus [11] = assay: Effect on piloerection after oral administration of 10 mg/kg in rat was determined; '+' weak effect; format: functional, organism-based; parameters: dose 10 mg/kg
Rattus norvegicus [12] = assay: Effect on piloerection after oral administration of 20 mg/kg in rat was determined; '++' strong effect; format: functional, organism-based; parameters: dose 20 mg/kg
Rattus norvegicus [13] = assay: Effect on restlessness after oral administration of 10 mg/kg in rat was determined; '+' weak effect; format: functional, organism-based; parameters: dose 10 mg/kg
Rattus norvegicus [14] = assay: Effect on restlessness after oral administration of 20 mg/kg in rat was determined; +' weak effect; format: functional, organism-based; parameters: dose 20 mg/kg
Rattus norvegicus [15] = assay: Effect on salivation after oral administration of 10 mg/kg in rat was determined; '-' No effect; format: functional, organism-based; parameters: dose 10 mg/kg
Rattus norvegicus [16] = assay: Effect on jumping after oral administration of 10 mg/kg in rat was determined; '-' No effect; format: functional, organism-based; parameters: dose 10 mg/kg
Rattus norvegicus [17] = assay: Effect on jumping after oral administration of 20 mg/kg in rat was determined; +' weak effect; format: functional, organism-based; parameters: dose 20 mg/kg
Rattus norvegicus [18] = assay: Effect on diarrhea after oral administration of 10 mg/kg in rat was determined; '+' weak effect; format: functional, organism-based; parameters: dose 10 mg/kg
Rattus norvegicus [19] = assay: Effect on diarrhea after oral administration of 20 mg/kg in rat was determined; '++' strong effect; format: functional, organism-based; parameters: dose 20 mg/kg
Rattus norvegicus [20] = assay: Effect on salivation after oral administration of 20 mg/kg in rat was determined; +' weak effect; format: functional, organism-based; parameters: dose 20 mg/kg
Rattus norvegicus [21] = assay: Effect on tremor after oral administration of 10 mg/kg in rat was determined; '-' No effect; format: functional, organism-based; parameters: dose 10 mg/kg
Rattus norvegicus [22] = assay: Effect on tremor after oral administration of 20 mg/kg in rat was determined; +' weak effect; format: functional, organism-based; parameters: dose 20 mg/kg
Mus musculus [23] = organism: Mus musculus; assay: animal or person
Description: Effect on alcohol induced sleep was determined in ethanol potentiation test; Range (0.41-1.79)

Mus musculus [24] = organism: Mus musculus; assay: animal or person; remark: listed apart in the source
Mus musculus [25] = organism: Mus musculus; assay: animal or person; conditions: po
Mus musculus [26] = organism: Mus musculus; assay: animal or person; remark: listed apart in the source
Description: Ataxic activity in mice by rotarod test; Range (2.99-5.35)

Rattus norvegicus [27] = assay: Effect on piloerection after oral administration of 100 mg/kg in rat was determined; '-' No effect; format: functional, organism-based; parameters: dose 100 mg/kg
Rattus norvegicus [28] = assay: Effect on piloerection after oral administration of 50 mg/kg in rat was determined; '-' No effect; format: functional, organism-based; parameters: dose 50 mg/kg
Rattus norvegicus [29] = assay: Effect on restlessness after oral administration of 100 mg/kg in rat was determined; '-' No effect; format: functional, organism-based; parameters: dose 100 mg/kg
Rattus norvegicus [30] = assay: Effect on restlessness after oral administration of 50 mg/kg in rat was determined; '-' No effect; format: functional, organism-based; parameters: dose 50 mg/kg
Rattus norvegicus [31] = assay: Effect on salivation after oral administration of 100 mg/kg in rat was determined; '-' No effect; format: functional, organism-based; parameters: dose 100 mg/kg
Rattus norvegicus [32] = assay: Effect on jumping after oral administration of 100 mg/kg in rat was determined; '-' No effect; format: functional, organism-based; parameters: dose 100 mg/kg
Rattus norvegicus [33] = assay: Effect on jumping after oral administration of 50 mg/kg in rat was determined; '-' No effect; format: functional, organism-based; parameters: dose 50 mg/kg
Rattus norvegicus [34] = assay: Effect on diarrheal after oral administration of 100 mg/kg in rat was determined; '-' No effect; format: functional, organism-based; parameters: dose 100 mg/kg
Rattus norvegicus [35] = assay: Effect on diarrheal after oral administration of 50 mg/kg in rat was determined; '-' No effect; format: functional, organism-based; parameters: dose 50 mg/kg
Rattus norvegicus [36] = assay: Effect on salivation after oral administration of 50 mg/kg in rat was determined; '-' No effect; format: functional, organism-based; parameters: dose 50 mg/kg
Rattus norvegicus [37] = assay: Effect on tremor after oral administration of 100 mg/kg in rat was determined; '-' No effect; format: functional, organism-based; parameters: dose 100 mg/kg
Rattus norvegicus [38] = assay: Effect on tremor after oral administration of 50 mg/kg in rat was determined; '-' No effect; format: functional, organism-based; parameters: dose 50 mg/kg

For `COc1cc(OCC(O)CN2CCN(c3ccc(C)c(C)c3)CC2)cc(OC)c1OC.Cl` (centres undefined), the ED50 (Mus musculus [1]) was 13 mg/kg.

With `CCOc1ccccc1N1CCN(CC(O)COc2cc(OC)c(OC)c(OC)c2)CC1.Cl` (centres undefined) the ED50 (Mus musculus [2]) was 19 mg/kg.

Work on `COc1cc(OCC(O)CN2CCN(c3ccccc3SC)CC2)cc(OC)c1OC.Cl` (centres undefined) yielded an ED50 (Mus musculus [3]) of 14 mg/kg.

`O=C1CC2(CCCC2)CC(=O)N1CCCCN1CCN(c2ncccn2)CC1` [BUSPIRONE] gave an ED50 (Mus musculus [4]) of 62.8 mg/kg, an ED50 (Mus musculus [5]) of 54.5 mg/kg and an ED50 (Mus musculus [6]) of 14.5 mg/kg. The ED50 (Mus musculus [7]) was 77 mg/kg, the Therapeutic index [8] was 0.8 and the Therapeutic index [9] was 0.7. For the same compound, the Therapeutic index [10] was 5.3.

In the case of `CN1C(=O)CN=C(c2ccccc2)c2cc(Cl)ccc21` [DIAZEPAM], the Effect (Rattus norvegicus [11]) is reported as “Partially active”, the Effect (Rattus norvegicus [12]) is reported as “Active” and the Effect (Rattus norvegicus [13]) is reported as “Partially active”. The Effect (Rattus norvegicus [14]) was “Partially active”, the Effect (Rattus norvegicus [15]) was “inactive” and the Effect (Rattus norvegicus [16]) was “inactive”. The Effect (Rattus norvegicus [17]) was “Partially active”, the Effect (Rattus norvegicus [18]) was “Partially active” and the Effect (Rattus norvegicus [19]) was “Active”. For the same compound, the Effect (Rattus norvegicus [20]) was “Partially active”, the Effect (Rattus norvegicus [21]) was “inactive” and the Effect (Rattus norvegicus [22]) was “Partially active”. The Therapeutic index [8] was 0.6, the Therapeutic index [9] was 2.1 and the Therapeutic index [10] was 2.9. The ED50 (Mus musculus [23]) was 0.85 mg/kg, the ED50 (Mus musculus [24]) was 3 mg/kg and the ED50 (Mus musculus [25]) was 1.4 mg/kg. It also gave an ED50 (Mus musculus [26]) of 4 mg/kg.

In the case of `COc1ccccc1N1CCN(CC(O)COc2cc(OC)c(OC)c(OC)c2)CC1` (centres undefined), the Effect (Rattus norvegicus [27]) is reported as “inactive”, the Effect (Rattus norvegicus [28]) is reported as “inactive” and the Effect (Rattus norvegicus [29]) is reported as “inactive”. The Effect (Rattus norvegicus [30]) was “inactive”, the Effect (Rattus norvegicus [31]) was “inactive” and the Effect (Rattus norvegicus [32]) was “inactive”. The Effect (Rattus norvegicus [33]) was “inactive”, the Effect (Rattus norvegicus [34]) was “inactive” and the Effect (Rattus norvegicus [35]) was “inactive”. For the same compound, the Effect (Rattus norvegicus [36]) was “inactive”, the Effect (Rattus norvegicus [37]) was “inactive” and the Effect (Rattus norvegicus [38]) was “inactive”. For the same compound, the Therapeutic index [8] was 32.5, the Therapeutic index [9] was 33 and the Therapeutic index [10] was 86.
